Source: ChEMBL document CHEMBL1201862, “PubChem BioAssay data set” (2004)
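Cultured in 96-well plates, cells were exposed to test compound for 48 hours across five concentrations. GI50 = concentration required for 50% inhibition of growth.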 Calls of active or inactive are those of the source. Cut-off read from the data, not from the text of the source: active = GI50 up to about 1.1 µM and inactive = higher.

Experiments:
Assay in all cases: NCI-60 cell line screen, 48 h
ACHN = system: ACHN
CAKI-1 = system: CAKI-1
COLO 205 = system: COLO 205
HCC 2998 = system: HCC 2998
HCT-116 = system: HCT-116
HOP-62 = system: HOP-62
HOP-92 = system: HOP-92
KM12 = system: KM12
NCI-H226 = system: NCI-H226
NCI-H460 = system: NCI-H460
OVCAR-4 = system: OVCAR-4
OVCAR-5 = system: OVCAR-5
RXF 393 = system: RXF 393
SK-MEL-28 = system: SK-MEL-28
SN12C = system: SN12C
SW-620 = system: SW-620
U-251 = system: U-251
UACC-257 = system: UACC-257
UO-31 = system: UO-31

Row | Compound | GI50 (ACHN) | GI50 (CAKI-1) | GI50 (COLO 205) | GI50 (HCC 2998) | GI50 (HCT-116) | GI50 (HOP-62) | GI50 (HOP-92) | GI50 (KM12) | GI50 (NCI-H226) | GI50 (NCI-H460) | GI50 (OVCAR-4) | GI50 (OVCAR-5) | GI50 (RXF 393) | GI50 (SK-MEL-28) | GI50 (SN12C) | GI50 (SW-620) | GI50 (U-251) | GI50 (UACC-257) | GI50 (UO-31)
1 | Nc1c(C(=O)c2ccccc2)[nH]c(NCc2ccccc2)c1C(=S)Nc1ccccc1 | > 100 µM (inactive) | > 100 µM (inactive) | > 100 µM (inactive) | > 100 µM (inactive) | > 100 µM (inactive) | > 100 µM (inactive) | > 100 µM (inactive) | > 100 µM (inactive) | > 100 µM (inactive) | > 100 µM (inactive) | > 100 µM (inactive) | > 100 µM (inactive) | > 100 µM (inactive) | > 100 µM (inactive) | > 100 µM (inactive) | > 100 µM (inactive) | > 100 µM (inactive) | > 100 µM (inactive) | > 100 µM (inactive)
2 | CC1=NN2C(c3ccc([N+](=O)[O-])cc3)=CSC2=NC(C)(C)C1 | > 100 µM (inactive) |  | > 100 µM (inactive) | > 100 µM (inactive) | > 100 µM (inactive) | > 100 µM (inactive) | 79.6 µM (inactive) | > 100 µM (inactive) | > 100 µM (inactive) | > 100 µM (inactive) | > 100 µM (inactive) | > 100 µM (inactive) | > 100 µM (inactive) | > 100 µM (inactive) | > 100 µM (inactive) | > 100 µM (inactive) | > 100 µM (inactive) | > 100 µM (inactive) | 88.1 µM (inactive)
3 | C=C1CCC2C(C)(CO)C(O)CCC2(C)C1CC(O)/C(=C/CO)C(=O)O (stereo not drawn) | > 100 µM (inactive) | > 100 µM (inactive) | > 100 µM (inactive) | > 100 µM (inactive) | > 100 µM (inactive) | > 100 µM (inactive) | > 100 µM (inactive) | > 100 µM (inactive) |  | > 100 µM (inactive) | > 100 µM (inactive) | > 100 µM (inactive) | > 100 µM (inactive) |  | > 100 µM (inactive) | > 100 µM (inactive) | > 100 µM (inactive) | > 100 µM (inactive) | > 100 µM (inactive)
4 | COc1ccc(C(N)=O)c(OC)c1OCc1ccccc1 | > 100 µM (inactive) |  | > 100 µM (inactive) | > 100 µM (inactive) | > 100 µM (inactive) | > 100 µM (inactive) | > 100 µM (inactive) | > 100 µM (inactive) | > 100 µM (inactive) | > 100 µM (inactive) | > 100 µM (inactive) | > 100 µM (inactive) | 0.15 µM (active) | > 100 µM (inactive) | > 100 µM (inactive) | > 100 µM (inactive) | > 100 µM (inactive) |  | > 100 µM (inactive)
5 | O=C(Nc1ccccc1-c1nn(CN2CCNCC2)c(=S)n(CN2CCNCC2)c1=O)C(F)(F)F | 25.3 µM (inactive) | 23.9 µM (inactive) | 17.1 µM (inactive) | 19.1 µM (inactive) | 17.8 µM (inactive) | 19.6 µM (inactive) | 22 µM (inactive) | 19.7 µM (inactive) | 17.2 µM (inactive) | 20.5 µM (inactive) | 19.5 µM (inactive) | 22.9 µM (inactive) | 16.3 µM (inactive) | 18.9 µM (inactive) | 19.4 µM (inactive) | 10.1 µM (inactive) | 16.9 µM (inactive) | 17.2 µM (inactive) | 13.6 µM (inactive)
6 | CCC1=C(C)/C(=C/c2[nH]c(CBr)c(CC)c2C)N=C1CBr | > 10 µM (inactive) | 10.2 µM (inactive) | 11.3 µM (inactive) | 12.2 µM (inactive) |  | 15 µM (inactive) | 7.46 µM (inactive) | 11.6 µM (inactive) |  | 19 µM (inactive) | 13 µM (inactive) | > 10 µM (inactive) | 12.1 µM (inactive) | 15.6 µM (inactive) | 10 µM (inactive) | 12.2 µM (inactive) | 11.3 µM (inactive) | > 10 µM (inactive) | 3.52 µM (inactive)
7 | O=C(CC1(O)C(=O)Nc2c(Cl)cccc21)c1ccccc1 (stereo not drawn) | > 100 µM (inactive) | > 100 µM (inactive) | > 100 µM (inactive) | > 100 µM (inactive) |  | > 100 µM (inactive) | > 100 µM (inactive) | > 100 µM (inactive) | > 100 µM (inactive) | > 100 µM (inactive) | 60 µM (inactive) | > 100 µM (inactive) | > 100 µM (inactive) | > 100 µM (inactive) | > 100 µM (inactive) | 76.4 µM (inactive) | > 100 µM (inactive) | > 100 µM (inactive) | > 100 µM (inactive)
8 | CCOc1ccc(OCC)c([P+](c2ccccc2)(c2ccccc2)c2ccccc2)c1 | 1.65 µM (inactive) | 1.29 µM (inactive) | 0.299 µM (active) | 0.305 µM (active) | 0.27 µM (active) | 1.07 µM (active) | 0.182 µM (active) | 0.178 µM (active) | 0.406 µM (active) | 0.383 µM (active) | 1.19 µM (inactive) | 0.407 µM (active) | 0.968 µM (active) | 0.818 µM (active) | 0.294 µM (active) | 0.44 µM (active) | 0.204 µM (active) | 0.215 µM (active) | 
9 | COC(=O)c1ccc(C)cc1C1CN=NC12Cc1cc(C)c(C)cc1C2=O (stereo not drawn) | 29.5 µM (inactive) | 79.8 µM (inactive) |  | 29.8 µM (inactive) | 24.2 µM (inactive) | > 100 µM (inactive) | 34.2 µM (inactive) | 30.2 µM (inactive) | 45.1 µM (inactive) | 37.7 µM (inactive) | > 100 µM (inactive) | > 100 µM (inactive) | 31.8 µM (inactive) | 45.7 µM (inactive) | 42.4 µM (inactive) | 35.6 µM (inactive) | 46.7 µM (inactive) | 53.2 µM (inactive) | 46.1 µM (inactive)
10 | O=C(CCN1CCOCC1)C(=Cc1ccccc1)C(=O)CCN1CCOCC1 |  | 3.99 µM (inactive) | 2.51 µM (inactive) | 13.7 µM (inactive) | 2.29 µM (inactive) | 21.2 µM (inactive) | 2.11 µM (inactive) | 5.01 µM (inactive) | 14.6 µM (inactive) | 12.8 µM (inactive) | 5.28 µM (inactive) | 19.2 µM (inactive) | 1.68 µM (inactive) | 2.38 µM (inactive) | 2.96 µM (inactive) | 1.92 µM (inactive) | 14.1 µM (inactive) | 1.79 µM (inactive) | 12.3 µM (inactive)
11 | O=C1C(=O)N(c2ccc(Cl)c(Cl)c2)C(=O)C(=O)C1c1nc2ccccc2s1 | > 100 µM (inactive) | > 100 µM (inactive) | > 100 µM (inactive) | > 100 µM (inactive) | > 100 µM (inactive) | > 100 µM (inactive) | 9.55 µM (inactive) |  | 88.7 µM (inactive) |  | > 100 µM (inactive) | > 100 µM (inactive) | > 100 µM (inactive) | > 100 µM (inactive) | > 100 µM (inactive) | > 100 µM (inactive) | > 100 µM (inactive) | > 100 µM (inactive) | > 100 µM (inactive)
12 | C/C=C/CC(S(=O)(=O)c1ccccc1)S(=O)(=O)c1ccccc1 | > 100 µM (inactive) |  | > 100 µM (inactive) | > 100 µM (inactive) | > 100 µM (inactive) | 85.5 µM (inactive) | > 100 µM (inactive) | > 100 µM (inactive) | > 100 µM (inactive) | > 100 µM (inactive) | > 100 µM (inactive) | > 100 µM (inactive) | > 100 µM (inactive) | > 100 µM (inactive) | > 100 µM (inactive) | > 100 µM (inactive) | 33.3 µM (inactive) | > 100 µM (inactive) | > 100 µM (inactive)
13 | CCS(=O)(=O)Nc1ccc(Nc2c3ccccc3nc3ccccc23)c(OC)c1 |  | 0.0962 µM (active) | 2.22 µM (inactive) | 1.72 µM (inactive) | 1.19 µM (inactive) | 0.067 µM (active) | 0.697 µM (active) | 1.75 µM (inactive) | 0.331 µM (active) | < 0.0114 µM (active) | 4.19 µM (inactive) | 3.23 µM (inactive) | 1.99 µM (inactive) | 3.03 µM (inactive) | 0.166 µM (active) | 0.527 µM (active) | 0.158 µM (active) | 2.6 µM (inactive) | 0.397 µM (active)
14 | CN(C)CC1CCC/C1=N/OC(=O)c1ccccc1 (stereo not drawn) | > 100 µM (inactive) | > 100 µM (inactive) | > 100 µM (inactive) | > 100 µM (inactive) | > 100 µM (inactive) | > 100 µM (inactive) | > 100 µM (inactive) |  | > 100 µM (inactive) | > 100 µM (inactive) | > 100 µM (inactive) | > 100 µM (inactive) | > 100 µM (inactive) | > 100 µM (inactive) | > 100 µM (inactive) | > 100 µM (inactive) | > 100 µM (inactive) | > 100 µM (inactive) | > 100 µM (inactive)
15 | O=C(O)c1cc2c(ncc3c(=O)n(-c4ccccc4)[nH]c32)s1 | > 100 µM (inactive) | > 100 µM (inactive) | > 100 µM (inactive) | > 100 µM (inactive) | > 100 µM (inactive) | > 100 µM (inactive) | > 100 µM (inactive) | > 100 µM (inactive) | > 100 µM (inactive) | > 100 µM (inactive) | > 100 µM (inactive) | > 100 µM (inactive) | > 100 µM (inactive) | > 100 µM (inactive) | > 100 µM (inactive) | > 100 µM (inactive) | > 100 µM (inactive) |  | > 100 µM (inactive)
